Target: T1, human NaV1.8 (Homo sapiens, UniProt Q9Y5Y9)
T1 construct: The following NaV1.8 recombinant cell line was used for recordings: HEK-NaV1.8 (NM 006514.1); expressed in transfected cells; host or cells: HEK (recombinant cell line HEK-NaV1.8)
Assay: Electrophysiology: automated whole-cell voltage-clamp (patch clamp, Qube384) recordings of sodium currents in HEK-NaV1.8 cells
Format: cell-based
Settings: potency data either taken from inactivated or resting state, read-out: Potency category (human NaV1.8 IC50)
In short: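 Automated whole-cell patch clamp at room temperature on HEK cells expressing human NaV1.8, with 0.3% DMSO vehicle controls. State-dependent protocol from −120 mV tested resting (P1) and half-inactivated (P2, 4 s at V1/2) channels, plus 40-pulse trains at 10 and 20 Hz. Values after ~12 min compound exposure were normalised to baseline and corrected for vehicle run-down; IC50 from a 4-parameter logistic fit, taken from inactivated or resting state.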

T1 sequence (Q9Y5Y9 whole entry): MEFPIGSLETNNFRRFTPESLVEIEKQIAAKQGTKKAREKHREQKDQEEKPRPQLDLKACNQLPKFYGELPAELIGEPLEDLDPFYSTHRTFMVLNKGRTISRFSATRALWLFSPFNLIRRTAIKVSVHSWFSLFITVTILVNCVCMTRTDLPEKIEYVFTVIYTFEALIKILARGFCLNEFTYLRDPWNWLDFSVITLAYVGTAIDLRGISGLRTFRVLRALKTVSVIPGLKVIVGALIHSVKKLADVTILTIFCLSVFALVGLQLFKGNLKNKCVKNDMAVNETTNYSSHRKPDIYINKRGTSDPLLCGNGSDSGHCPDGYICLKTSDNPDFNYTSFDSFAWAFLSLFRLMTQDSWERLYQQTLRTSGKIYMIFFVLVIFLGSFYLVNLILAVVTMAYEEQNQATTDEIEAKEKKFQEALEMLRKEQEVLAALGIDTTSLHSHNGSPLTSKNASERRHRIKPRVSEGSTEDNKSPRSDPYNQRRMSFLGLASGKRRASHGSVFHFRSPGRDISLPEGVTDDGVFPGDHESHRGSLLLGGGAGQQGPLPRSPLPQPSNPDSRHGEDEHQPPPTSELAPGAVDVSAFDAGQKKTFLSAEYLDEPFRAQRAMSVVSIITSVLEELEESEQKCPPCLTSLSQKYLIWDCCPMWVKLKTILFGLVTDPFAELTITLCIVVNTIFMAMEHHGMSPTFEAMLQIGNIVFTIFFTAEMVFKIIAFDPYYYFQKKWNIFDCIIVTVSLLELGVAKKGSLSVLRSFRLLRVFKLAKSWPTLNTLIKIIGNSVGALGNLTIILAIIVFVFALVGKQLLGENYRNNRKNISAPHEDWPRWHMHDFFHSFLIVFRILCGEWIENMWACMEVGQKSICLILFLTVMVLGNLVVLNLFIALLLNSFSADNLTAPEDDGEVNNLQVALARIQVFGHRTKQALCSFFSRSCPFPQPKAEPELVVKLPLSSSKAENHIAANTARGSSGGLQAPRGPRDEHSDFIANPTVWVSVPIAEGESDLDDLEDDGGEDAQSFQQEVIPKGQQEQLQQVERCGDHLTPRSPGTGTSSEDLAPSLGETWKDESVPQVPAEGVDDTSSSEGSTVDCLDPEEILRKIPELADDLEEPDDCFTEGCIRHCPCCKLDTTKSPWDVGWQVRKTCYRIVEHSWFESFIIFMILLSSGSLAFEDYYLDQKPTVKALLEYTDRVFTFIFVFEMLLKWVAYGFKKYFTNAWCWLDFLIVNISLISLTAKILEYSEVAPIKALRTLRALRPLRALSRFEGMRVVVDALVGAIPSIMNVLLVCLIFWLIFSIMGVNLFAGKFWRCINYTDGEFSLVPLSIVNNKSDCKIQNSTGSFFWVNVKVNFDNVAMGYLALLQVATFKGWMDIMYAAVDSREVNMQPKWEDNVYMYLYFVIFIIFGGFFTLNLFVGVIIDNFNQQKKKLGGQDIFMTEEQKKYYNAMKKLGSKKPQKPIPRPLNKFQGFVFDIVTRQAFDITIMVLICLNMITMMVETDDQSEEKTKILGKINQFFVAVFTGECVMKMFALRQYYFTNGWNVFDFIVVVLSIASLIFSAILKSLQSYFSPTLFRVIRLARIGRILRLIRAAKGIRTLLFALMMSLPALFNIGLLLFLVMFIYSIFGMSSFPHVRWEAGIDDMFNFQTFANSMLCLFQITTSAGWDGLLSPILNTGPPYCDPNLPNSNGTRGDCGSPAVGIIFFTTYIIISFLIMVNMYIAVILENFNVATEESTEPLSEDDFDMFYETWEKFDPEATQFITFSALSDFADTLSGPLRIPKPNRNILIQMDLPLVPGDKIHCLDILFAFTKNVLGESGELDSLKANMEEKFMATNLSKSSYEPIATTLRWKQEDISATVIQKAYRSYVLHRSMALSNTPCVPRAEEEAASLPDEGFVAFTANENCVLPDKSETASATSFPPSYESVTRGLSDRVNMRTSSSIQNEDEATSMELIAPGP
T1 sequence (Q9NY72 23-215 partner): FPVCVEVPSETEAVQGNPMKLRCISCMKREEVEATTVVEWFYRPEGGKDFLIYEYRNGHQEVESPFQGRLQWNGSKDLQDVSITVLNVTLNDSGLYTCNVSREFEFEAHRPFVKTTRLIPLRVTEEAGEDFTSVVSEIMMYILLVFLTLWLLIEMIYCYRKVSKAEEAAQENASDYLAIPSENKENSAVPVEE

SMILES	IC50 [nM]
Cc1c(C(C)(F)F)nn(CC2(C)CCC(F)(F)C2)c1C(=O)Nc1ccnc(S(C)(=O)=O)c1 (stereo not drawn) [SC-213, 1-((3,3-difluoro-1-methyleyclopentyl)methyl)-3-(1,l-difluoroethyl)-4-methyl-N-(2-(methylsulfonyl)pyridin-4-yl)-1H-pyrazole-5-carboxamide]	≤ 100
Cc1c(C(C)(F)F)nn(CC2CC(F)(F)C2)c1C(=O)Nc1ccnc(S(N)(=O)=O)c1 [SC-215, 1-((3,3-difluorocyclobutyl)methyl)-3-(1,1-difluoroethyl)-4-methyl-N-(2-sulfamoylpyridin-4-yl)-lH-pyrazole-5-carboxamide]	≤ 100
NC(=O)c1cc(NC(=O)c2c(C(F)F)c(C3CC3)nn2CC2CCC(F)(F)C2)ccn1 (centres unmarked) [SC-216, 4-(3-cyclopropyl-1-((3,3-difluorocyclopentyl)methyl)-4-(difluoromethyl)-1H-pyrazole-5-carboxamido)picolinamide]	≤ 100
CCc1nn(CC2CCC(F)(F)C2)c(C(=O)Nc2ccnc(C(N)=O)c2)c1C(F)(F)F (centres unmarked) [SC-218, 4-(1-((3,3-difluorocyclopentyl)methyl)-3-ethyl-4-(trifluoromethyl)-1H-pyrazole-5-carboxamido)picolinamide]	≤ 100
Cc1c(C(C)(F)F)nn(CC2(C(F)(F)F)CC(F)(F)C2)c1C(=O)Nc1ccnc(S(C)(=O)=O)c1 [SC-220, 1-((3,3-difluoro-1-(trifluoromethyl)cyclobutyl)methyl)-3-(1,l-difluoroethyl)-4-methyl-N-(2-(methylsulfonyl)pyridin-4-yl)-1H-pyrazole-5-carboxamide]	≤ 100
Cc1c(C(C)(F)F)nn([C@@H](C)C2CC(F)(F)C2)c1C(=O)Nc1ccnc(S(C)(=O)=O)c1 [SC-222a]	100 to 1000
Cc1c(C(C)(F)F)nn([C@H](C)C2CC(F)(F)C2)c1C(=O)Nc1ccnc(S(C)(=O)=O)c1 [SC-222b]	1000 to 10000
Cc1c(C(C)(F)F)nn(CC2C[C@@H](F)[C@@H](F)C2)c1C(=O)Nc1ccnc(S(C)(=O)=O)c1 (some centres unmarked) [SC-224, 1-((3,4-difluorocyclopentyl)methyl)-3-(1,1-difluoroethyl)-4-methyl-N-(2-(methylsulfonyl)pyridin-4-yl)-1H-pyrazole-5-carboxamide]	100 to 1000
COc1nn(CC2CCC(F)(F)C2)c(C(=O)Nc2ccnc(S(C)(=O)=O)c2)c1C(F)(F)F (centres unmarked) [SC-225, 1-((3,3-difluorocyclopentyl)methyl)-3-methoxy-N-(2-(methylsulfonyl)pyridin-4-yl)-4-(trifluoromethyl)-1H-pyrazole-5-carboxamide]	≤ 100
CS(=O)(=O)c1cccc(NC(=O)c2ccnn2CC2CCCCC2)c1 [SC-226, 1-(cyclohexylmethyl)-N-(3-(methyIsulfonyl)phenyl)-1H-pyrazole-5-carboxamide]	1000 to 10000
CS(=O)(=O)c1cccc(NC(=O)c2c(C(F)F)cnn2CC2CCCCC2)c1 [SC-229, 1-(cyclohexylmethyl)-4-(difluoromethyl)-N-(3-(methylsulfonyl)phenyl)-1H-pyrazole-5-carboxamide]	≤ 100
NS(=O)(=O)c1cccc(NC(=O)c2c(C(F)(F)F)c(C3CC3)nn2CC2CCC(F)(F)CC2)c1 [SC-230, 3-cyclopropyl-1-((4,4-difluorocyclohexyl)methyl)-N-(3-sulfamoylphenyl)-4-(trifluoromethyl)-lH-pyrazole-5-carboxamide]	≤ 100
Cc1nn(CC2CCC(F)(F)CC2)c(C(=O)Nc2ccnc(C#N)c2)c1C [SC-231, N-(2-cyanopyridin-4-yl)-1-((4,4-difluorocyclohexyl)methyl)-3,4-dimethyl-1H-pyrazole-5-carboxamide]	1000 to 10000
CC1(Cn2ncc(C(F)(F)F)c2C(=O)Nc2cccc(S(C)(=O)=O)c2)CCCCC1 [SC-232, 1-((1-methylcyclohexyl)methyl)-N-(3-(methylsulfonyl)phenyl)-4-(trifluoromethyl)-1H-pyrazole-5-carboxamide]	≤ 100
CS(=O)(=O)c1cccc(NC(=O)c2c(C(F)(F)F)cnn2CC2(F)CCCCC2)c1 [SC-233, 1-((1-fluorocyclohexyl)methyl)-N-(3-(methylsulfonyl)phenyl)-4-(trifluoromethyl)-1H-pyrazole-5-carboxamide]	100 to 1000
Cc1nn(CC2COC2)c(C(=O)Nc2cccc(S(C)(=O)=O)c2)c1C(F)(F)F [SC-234, 3-methyl-N-(3-(methyIsulfonyl)phenyl)-1-(oxetan-3-yImethyl)-4-(trifluoromethyl)-1H-pyrazole-5-carboxamide]	1000 to 10000
NS(=O)(=O)c1cccc(NC(=O)c2c(C(F)(F)F)cnn2CC2CCCC2(F)F)c1 (centres unmarked) [SC-235, 1-((2,2-difluorocyclopentyl)methyl)-N-(3-sulfamoylphenyl)-4-(trifluoromethyl)-1H-pyrazole-5-carboxamide]	≤ 100
Cc1nn(CC2CCC(F)(F)CC2)c(C(=O)Nc2cccc(S(N)(=O)=O)c2)c1Cl [SC-236, 4-chloro-1-((4,4-difluorocyclohexyl)methyl)-3-methyl-N-(3-sulfamoylphenyl)-1H-pyrazole-5-carboxamide]	≤ 100
Cc1nn(CC2CCO2)c(C(=O)Nc2cccc(S(C)(=O)=O)c2)c1C(F)(F)F (centres unmarked) [SC-237, 3-methyl-N-(3-(methyIsulfonyl)phenyl)-1-(oxetan-2-yimethyl)-4-(trifluoromethyl)-1H-pyrazole-5-carboxamide]	1000 to 10000
Cc1nn(CC2CCCCC2)c(C(=O)Nc2ccc(F)c(S(N)(=O)=O)c2)c1C(F)(F)F [SC-238, 1-(cyclohexyimethyl)-N-(4-fluoro-3-sulfamoylphenyl)-3-methyl-4-(trifluoromethyl)-1H-pyrazole-5-carboxamide]	≤ 100
Cc1c(Cl)nn(CC2CCC(F)(F)CC2)c1C(=O)Nc1ccnc(C(N)=O)c1 [SC-239, 4-(3-chloro-1-((4,4-difluorocyclohexyl)methyl)-4-methyl-1H-pyrazole-5-carboxamido)picolinamide]	100 to 1000
Cc1nn(CC2CCC(F)(F)CC2)c(C(=O)Nc2cncc(S(C)(=O)=O)c2)c1C(F)(F)F [SC-241, 1-((4,4-difluorocyclohexyl)methyl)-3-methyl-N-(5-(methyisulfonyl)pyridin-3-yl)-4-(trifluoromethyl)-1H-pyrazole-5-carboxamide]	100 to 1000
Cc1c(C(F)(F)F)nn(CC2CCC(F)(F)CC2)c1C(=O)Nc1cncc(S(N)(=O)=O)c1 [SC-242, 1-((4,4-difluorocyclohexyl)methyl)-4-methyl-N-(5-sulfamoylpyridin-3-yl)-3-(trifluoromethyl)-1H-pyrazole-5-carboxamide]	100 to 1000
Cc1c(C(F)(F)F)nn(CC2CCC(F)(F)CC2)c1C(=O)Nc1cccc(S(N)(=O)=O)n1 [SC-243, 1-((4,4-difluorocyclohexyl)methyl)-4-methyl-N-(6-sulfamoylpyridin-2-yl)-3-(trifluoromethyl)-1H-pyrazole-5-carboxamide]	100 to 1000
Cc1nn(CC2CCCCC2)c(C(=O)Nc2cccc(S(N)(=O)=O)c2)c1C(F)(F)F [SC-244, 1-(cyclohexyimethyl)-3-methyl-N-(3-sulfamoylphenyl)-4-(trifluoromethyl)-1H-pyrazole-5-carboxamide]	≤ 100
NS(=O)(=O)c1cc(NC(=O)c2c(C(F)(F)F)c(C3CC3)nn2CC2CCC(F)(F)CC2)ccn1 [SC-246, 3-cyclopropyl-1-((4,4-difluorocyclohexyl)methyl)-N-(2-sulfamoylpyridin-4-yl)-4-(trifluoromethyl)-1H-pyrazole-5-carboxamide]	≤ 100
